Reference: US6262064A, “Octahydrobenzo[f]quinoline-based receptor agonists and antagonists” (priority 1999, dated 2001)
“Also recorded” adds a separate entry of the source. Read-outs that look alike come from different tables or passages of the source.

Legend:
[1] = system: alpha1-adrenergic receptor; conditions: for Ki: read-out: α1 receptor binding affinity Ki, Table III, rat forebrain membranes
Protocol: In these assays, the binding reaction was initiated by the addition of varying concentrations of the potential binding composition and a radioligand to an appropriate tissue. The assay was then incubated to allow binding. Binding was then terminated by dilution of the assay with a cold buffer, followed by rapid vacuum filtration onto Whatman GI/C filters that were presoaked in 0.1% polyethylene imine for at least 3 hours. Radioactivity trapped onto the filters was determined and compared to control values in order to ascertain any interactions of test compounds with the binding sites. Binding affinity analyses were performed by Novascreen, Division of the Adheron Corporation, Hanover, Md.
Incubation was conducted in 50 mM TRIS-HCl (pH 7.7) at 25° C. for 60 minutes. […] The final ligand concentration was 0.5 nm.

D2 dopamine receptor = target: T1, D2 dopamine receptor (Rattus norvegicus, UniProt P61169); test: Dopamine D2 binding assay ([3H]Sulpiride); conditions: for dopamine receptor binding affinity / selectivity for the D2 over the D1 dopamine receptor: in words
T1 construct: rat striatal membranes; from tissue; host or cells: rat striatum membranes
T1 sequence (P61169 whole entry): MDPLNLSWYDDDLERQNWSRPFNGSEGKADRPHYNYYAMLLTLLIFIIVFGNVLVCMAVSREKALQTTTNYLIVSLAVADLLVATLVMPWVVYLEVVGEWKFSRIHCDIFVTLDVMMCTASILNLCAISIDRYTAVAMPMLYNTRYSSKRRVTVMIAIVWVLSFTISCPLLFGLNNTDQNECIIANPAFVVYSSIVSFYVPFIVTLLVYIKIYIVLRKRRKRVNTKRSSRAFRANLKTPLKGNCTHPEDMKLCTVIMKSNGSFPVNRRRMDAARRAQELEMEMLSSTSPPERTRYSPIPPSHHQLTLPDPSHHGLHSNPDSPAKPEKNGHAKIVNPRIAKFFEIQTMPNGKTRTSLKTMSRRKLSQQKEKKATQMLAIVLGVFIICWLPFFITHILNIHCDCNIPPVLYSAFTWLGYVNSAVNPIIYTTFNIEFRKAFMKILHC
Protocol: The final ligand concentration was 0.5 nM.

D2 receptor [2] = target: T2, D2 receptor (Rattus norvegicus, UniProt P61169); test: D2 receptor agonist evaluation (membrane binding with and without Gpp(NH)p); conditions: for Ratio of +:- Gpp(NH)p / Ki: Table XV; for D2 agonist/antagonist assessment / effect of GTP on D2 receptor binding: in words
T2 construct: expressed in transfected cells
T2 sequence (P61169 whole entry): as above
Protocol: (§1) To determine the D2, D3 or D4 receptor selectivity, competition binding assays were performed using membranes from fibroblast cell lines transfected with D2444 (rat), D3 (human) or D4 (rat) receptors. All cell lines were maintained in Dulbecco's modified Eagle's media (DMEM) supplemented with 10 % fetal bovine serum at 37° C. with 5% CO2. Transfected cells were maintained in DMEM containing 300 μg/mL of the antibiotic G418 (Gibco).
To determine whether or not compounds of this invention were D2 receptor agonists, a membrane binding assay, utilizing the D2 cell line described in Example 26, was performed in the presence and absence of the non-hydrolyzable guanine nucleotide (GTP analogue) Gpp(NH)p.

D4 receptor = target: T3, D4 receptor (Homo sapiens, UniProt P21917, DEL265-296); test: D2:D4 comparative binding assay, D4 (COS-7 cells)
T3 construct: expressed in transfected cells; host or cells: COS-7 cells
T3 sequence (P21917 other isoform, or with tags, fused parts or gaps DEL265-296): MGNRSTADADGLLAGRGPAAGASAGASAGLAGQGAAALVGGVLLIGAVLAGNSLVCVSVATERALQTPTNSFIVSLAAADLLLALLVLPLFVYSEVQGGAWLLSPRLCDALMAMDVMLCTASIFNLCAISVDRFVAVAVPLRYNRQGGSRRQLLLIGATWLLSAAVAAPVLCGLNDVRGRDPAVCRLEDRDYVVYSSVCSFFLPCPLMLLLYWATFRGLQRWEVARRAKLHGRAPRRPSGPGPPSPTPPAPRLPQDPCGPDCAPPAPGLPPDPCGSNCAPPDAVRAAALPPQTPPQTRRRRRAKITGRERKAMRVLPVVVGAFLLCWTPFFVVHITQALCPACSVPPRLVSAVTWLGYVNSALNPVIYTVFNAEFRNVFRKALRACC
Protocol: (§2) To evaluate D2 versus D4 receptor selectivity, comparative binding assays were performed to compare the binding affinities of compositions of this invention for cloned D2 and D4 receptors.
(§3) The D2 assay was prepared from pig anterior pituitary tissue as described in Seeman et al., Molecular Pharmacology, 28:391 (1985). The D4 assay contained membranes prepared from COS-7 cells transfected with a 3.9 kb cDNA-gene fusion construct as described in H. H. M. Vantol, Nature, 350:610 (1991).
(§4) Binding assays were done using the methods described in by Seeman and Vantol. [^3 H]-spiperone (New England Nuclear, Boston, Mass.). The compositions were tested varying concentrations.
(§5) After addition of all components, the samples were incubated for 15 minutes at 37° C., terminated with 50 mM Tris-HCl (pH 7.4 at 20° C.) and collected on glass-fiber filters on a Brandel cell harvester. Radioactivity retained on the filters was counted on a Beckman LS 1701 scintillation counter and data were analyzed by non-linear least squares regression methods.

D1 dopamine receptor = target: T4, D1 dopamine receptor (Rattus norvegicus, UniProt P18901); test: Dopamine D1 binding assay ([3H]SCH 23390); conditions: Table III; rat striatal membranes; read-out: D1 receptor binding affinity Ki
T4 construct: rat striatal membranes; from tissue; host or cells: rat striatum membranes
T4 sequence (P18901 whole entry): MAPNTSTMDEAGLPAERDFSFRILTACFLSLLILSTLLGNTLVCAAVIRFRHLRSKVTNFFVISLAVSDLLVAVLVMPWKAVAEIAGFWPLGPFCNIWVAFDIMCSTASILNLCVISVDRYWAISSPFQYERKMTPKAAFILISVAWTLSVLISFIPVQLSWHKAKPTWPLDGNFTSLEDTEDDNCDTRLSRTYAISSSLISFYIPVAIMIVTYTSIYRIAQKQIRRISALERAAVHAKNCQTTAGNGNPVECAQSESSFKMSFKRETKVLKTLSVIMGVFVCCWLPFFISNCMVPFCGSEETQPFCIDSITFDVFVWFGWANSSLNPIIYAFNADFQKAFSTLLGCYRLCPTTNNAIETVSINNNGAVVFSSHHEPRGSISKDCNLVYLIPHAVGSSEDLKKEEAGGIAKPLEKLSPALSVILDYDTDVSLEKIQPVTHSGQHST
Protocol: The final radioligand concentration was 0.5 nM.

D3 (human) receptor = target: T5, D3 (human) receptor (Homo sapiens, UniProt P35462); test: D2:D3:D4 competition binding assay, D3 ([3H]-spiperone); conditions: in words, Example 26
T5 construct: expressed in transfected cells
T5 sequence (P35462 whole entry): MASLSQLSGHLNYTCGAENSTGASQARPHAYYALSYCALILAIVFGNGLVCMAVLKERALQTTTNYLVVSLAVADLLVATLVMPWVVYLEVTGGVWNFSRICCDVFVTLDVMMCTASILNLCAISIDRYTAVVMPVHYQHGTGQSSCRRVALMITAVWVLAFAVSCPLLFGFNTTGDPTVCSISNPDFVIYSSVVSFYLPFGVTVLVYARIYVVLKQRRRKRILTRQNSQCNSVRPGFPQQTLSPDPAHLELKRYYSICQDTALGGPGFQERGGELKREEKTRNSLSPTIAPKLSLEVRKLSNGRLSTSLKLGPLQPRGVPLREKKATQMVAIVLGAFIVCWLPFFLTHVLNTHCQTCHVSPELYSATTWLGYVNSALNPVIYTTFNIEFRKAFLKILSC
Protocol: as §1
(§6) Nuclei were removed by centrifugation for five minutes at 600 g at 4° C., membranes were pelleted for 25 minutes at 50,000 g. Membrane protein was resuspended in homogenization buffer (0.32M sucrose, 0.0025M Tris, pH 6.9 at 20° C.) and incubated at 37° C. for 15 minutes. Membrane protein was pelleted, resuspended in water and stored at -70° C.
(§7) The compositions were tested in varying concentrations between 1 nM and 100 μM. Non-specific binding was determined using 1 μM eticlopride.
(§8) After addition of all components, the samples were incubated for 15 minutes at 37° C., terminated with 50 mM Tris-HCl (pH 7.4 at 4° C.) and collected on glass-fiber filters on a Brandel cell harvester. […] Each composition was evaluated in duplicate experiments.

5HT1 serotonin receptor = test: Serotonin (5HT1) binding assay
Protocol: In these assays, the binding reaction was initiated by the addition of varying concentrations of the potential binding composition and a radioligand to an appropriate tissue. The assay was then incubated to allow binding. Binding was then terminated by dilution of the assay with a cold buffer, followed by rapid vacuum filtration onto Whatman GI/C filters that were presoaked in 0.1% polyethylene imine for at least 3 hours. Radioactivity trapped onto the filters was determined and compared to control values in order to ascertain any interactions of test compounds with the binding sites.
Incubation was conducted in 50 mM TRIS-HCl (pH 7.4) at 45 minutes for 37° C. The radioligand used was [^3 H]Hydroxytryptamine binoxalate (15-30 Ci/mmol). The final ligand concentration was 3.0 nM.

[3] = system: male Sprague-Dawley albino rats; test: Stereotypy evaluation for dopaminergic activity; type: in vivo; conditions: IP; for induction of stereotypy, dopamine agonism: in words
Protocol: Young, adult, male Sprague-Dawley (Charles River) albino rats (200-250 g) served as subjects in this experiment. The rats were injected IP with each dose of (±)-trans-9 or (±)-cis-9. Six rats were tested at each dose. Experimental sessions were 60 minutes in duration. The tests were performed and rated in accordance with the method described in Campbell et al., Psychopharmacology, 88:158 (1986). Each rat was rated with a score of 0 to 3, where 0 represents no sterotypy.

[4] = system: non-habituated male Swiss-Webster mice; test: Locomotor dose-effect test; type: in vivo; conditions: for decrease in locomotor activity, overall assessment / suppression of locomotor activity: in words; for ED50: Mus musculus, read-out: ED50 (dose which produced 50% maximal depressant activity), IP, horizontal locomotor activity
Protocol: Compounds of this invention were tested to evaluate any depressant effect upon locomotor activity on non-habituated and cocaine-influenced mice. Locomotor activity was measured in photocell cages. A panel of infrared beams was located in the horizontal direction along all 4 sides of each activity cage. Horizontal photocell beam interruptions were recorded by a computer in 10 minute intervals.
Non-habituated male Swiss-Webster served as subjects in this experiment. The mice were injected via the intraperitoneal (IP) route with a methycellulose vehicle or a test compound, comprising trans-9 or cis-9, and placed singly in cages for 20 minutes. After this 20 minute period, mice were injected with saline IP, placed in individual photocell cages and testing for effects upon locomotor activity was begun. Eight mice were tested at each dose level. Experimental sessions were 60 minutes in duration with horizontal locomotor activity recorded in 10 minute intervals. Within each 10 minute interval, the data from all subjects are averaged.
The results of these tests were provided in FIGS. 1a, 1b, 2a and 2b, as well as in Table XI. […] Data were analyzed by a one-way ANOVA computed across doses using a long10 transformation of the horizontal activity counts. Comparisons between vehicle and each dose of the compounds tested were made by a priori contrasts. Doses of the compounds tested, which produced a statistically significant (p<0.05) decrease in locomotor activity relative to vehicle control, are denoted with an asterisk. […] The horizontal activity counts were regressed against the log10 dose of the test compound.

D2 receptor [5] = target: T6, D2 receptor (Sus scrofa, UniProt F1SM69); test: D2:D4 comparative binding assay, D2 (pig anterior pituitary)
T6 construct: pig anterior pituitary tissue; from tissue; host or cells: pig anterior pituitary
T6 sequence (F1SM69 1-443): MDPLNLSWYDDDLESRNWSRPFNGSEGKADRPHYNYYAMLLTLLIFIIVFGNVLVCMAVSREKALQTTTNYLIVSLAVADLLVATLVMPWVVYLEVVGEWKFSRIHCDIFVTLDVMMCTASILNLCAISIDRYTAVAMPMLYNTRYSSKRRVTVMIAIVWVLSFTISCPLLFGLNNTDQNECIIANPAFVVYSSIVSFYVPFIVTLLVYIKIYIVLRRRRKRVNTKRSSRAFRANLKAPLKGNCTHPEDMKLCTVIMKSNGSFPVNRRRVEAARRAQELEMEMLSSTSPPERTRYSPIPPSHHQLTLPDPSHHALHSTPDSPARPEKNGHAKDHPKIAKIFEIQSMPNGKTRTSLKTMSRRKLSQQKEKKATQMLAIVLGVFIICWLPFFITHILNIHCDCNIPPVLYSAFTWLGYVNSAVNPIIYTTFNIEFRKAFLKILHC
Protocol: as §2, §3, §4, §5

[6] = target: alpha2-adrenergic receptor; test: Alpha2-adrenergic (non-selective) binding assay ([3H]RX 781094); design: species or system rat; conditions: for Ki: Table III, rat cortical membranes, read-out: α2 receptor binding affinity Ki; for α2 receptor binding affinity: in words
D4 (rat) receptor = target: T7, D4 (rat) receptor (Rattus norvegicus, UniProt P30729); test: D2:D3:D4 competition binding assay, D4 ([3H]-spiperone); conditions: in words, Example 26
T7 construct: expressed in transfected cells
T7 sequence (P30729 1-387): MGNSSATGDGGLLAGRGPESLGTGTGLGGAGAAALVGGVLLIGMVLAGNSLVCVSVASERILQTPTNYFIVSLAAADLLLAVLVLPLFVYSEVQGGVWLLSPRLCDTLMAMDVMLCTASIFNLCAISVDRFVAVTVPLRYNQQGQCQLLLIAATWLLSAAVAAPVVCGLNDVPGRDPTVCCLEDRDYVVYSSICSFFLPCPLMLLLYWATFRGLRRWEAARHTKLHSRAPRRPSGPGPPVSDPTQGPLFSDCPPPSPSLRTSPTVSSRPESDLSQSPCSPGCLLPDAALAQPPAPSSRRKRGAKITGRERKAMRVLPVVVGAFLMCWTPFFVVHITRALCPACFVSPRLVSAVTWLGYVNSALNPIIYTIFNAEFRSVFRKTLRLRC
Protocol: as §1, §6, §7, §8

[7] = with Gpp(NH)p, read-out: D2 receptor binding Ki with Gpp(NH)p
[8] = without Gpp(NH)p, read-out: D2 receptor binding Ki without Gpp(NH)p

SMILES | Ki [1] [nM] | Ki (D2 dopamine receptor) [nM] | dopamine receptor binding affinity (D2 dopamine receptor) | selectivity for the D2 over the D1 dopamine receptor (D2 dopamine receptor) | Ratio of +:- Gpp(NH)p (D2 receptor [2]) | Ki (D2 receptor [2]; [7]) [nM] | Ki (D2 receptor [2]; [8]) [nM] | D2 agonist/antagonist assessment (D2 receptor [2]) | effect of GTP on D2 receptor binding (D2 receptor [2]) | Ki (D4 receptor) [nM] | stereotypy score ([3]; 0.0001 mg/kg) | stereotypy score ([3]; 0.001 mg/kg) | stereotypy score ([3]; 0.003 mg/kg) | stereotypy score ([3]; 0.01 mg/kg) | stereotypy score ([3]; 0.03 mg/kg) | stereotypy score ([3]; 0.1 mg/kg) | stereotypy score ([3]; 0.3 mg/kg) | stereotypy score ([3]; 1.0 mg/kg) | stereotypy score ([3]; 3.0 mg/kg) | stereotypy score ([3]; 10.0 mg/kg) | other results
Oc1ccc2c(c1O)CC[C@@H]1[C@@H]2CCCN1CCc1ccccc1 (relative stereo) [trans-9, trans-7,8-dihydroxy-4-phenethyl-1,2,3,4,4a,-5,6,10b-octahydrobenzo[f]quinoline] | 80 | 2.2 | good dopamine receptor binding affinities | highly selective for the D2 dopamine receptor over the D1 dopamine receptor | 8.82 | 924 ± 1840 | 105 ± 29 | appear to be agonists | D2 receptor binding was enhanced by the addition of GTP | 2.4 | 6.5 ± 0.4 | 10.0 ± 0.9 | 8.2 ± 0.8 | 7.2 ± 0.6 | 6.5 ± 0.5 | 6.0 ± 0.7 | 1.7 ± 0.5 | 0.3 ± 0.2 | 0.2 ± 0.2 | 0.0 | α1 receptor binding affinity ([1]; in words): high binding affinities for the α1 receptor; Ki (D1 dopamine receptor): 3600 nM; selectivity for the D3 receptor (D3 (human) receptor): highly selective for the D3 receptor over the D2 or D4 receptors; 5HT1 serotonin receptor binding affinity (5HT1 serotonin receptor; in words): high binding affinity for the 5HT1 serotonin receptor; Ki (5HT1 serotonin receptor; read-out: 5-HT1 receptor binding affinity Ki, Table III, rat cortical membranes): 150 nM; induction of stereotypy, dopamine agonism [3]: appears to be a strong agonist as it induced stereotypy in rats; decrease in locomotor activity, overall assessment ([4]; IP): strong agonist in inducing a decrease in locomotor activity in mice; suppression of locomotor activity ([4]; IP): marked suppression of locomotor activity when initially tested at 10 mg/kg; also recorded: Marked suppression was still evident at 0.1 mg/kg; ED50 [4]: 0.038 mg/kg; Ki (D2 receptor [5]): 6.9 nM; Ki [6]: 22 nM; α2 receptor binding affinity [6]: high binding affinities for the α2 receptor
Oc1ccc2c(c1O)CC[C@@H]1[C@H]2CCCN1CCc1ccccc1 (relative stereo) [cis-9] | 190 | 22 | good dopamine receptor binding affinities | highly selective for the D2 dopamine receptor over the D1 dopamine receptor | 1.84 | 872 ± 610 | 473 ± 313 | appear to be an antagonist | the addition of GTP did not significantly affect receptor binding affinity | 8.9 | 1.0 ± 0.4 | 0.7 ± 0.3 | 0.5 ± 0.2 | 0.0 | 0.0 | 0.0 | 0.0 | 0.0 | 0.0 | 0.0 | selectivity for the D4 receptor (D4 (rat) receptor): highly selective for the D4 receptor over the D2 or D3 receptors; selectivity for the D4 receptor (D4 receptor; in words, Example 27): selective for the D4 receptor over the D2 or D3 receptors; induction of stereotypy, dopamine agonism [3]: did not induce stereotypy and therefore is not a dopamine agonist; deaths ([4]; IP, 10 mg/kg): Two of eight mice died; decrease in locomotor activity, overall assessment ([4]; IP): much weaker than expected when compared to its dopamine D2 receptor affinity; suppression of locomotor activity ([4]; IP): dose-related suppression of locomotor activity of 10 mg/kg; ED50 [4]: 2.1 mg/kg; Ki (D2 receptor [5]): 122 nM; Ki [6]: 27 nM; α2 receptor binding affinity [6]: high binding affinities for the α2 receptor
